Data reported in patent US20240255521A1, “Cilia Protein as Biomarkers and Methods of Use” (The Medical College of Wisconsin, Inc., priority 2021, published 2024).
Entries after “also recorded” stand apart in the source; their conditions may differ.

Legend:
HBMVECs = test: PMA-induced oxidative stress in HBMVECs with or without NOX inhibitor; ROS, HO-1 and cilia proteins by flow cytometry (MFI); assay type: cell-based, human
Protocol: Primary HBMVECs (Cell Systems Corporation catalog ACBRI 376) and HUVECs (Glyco Tech) were maintained at 37° C. in a 5% CO2 incubator in endothelial cell complete medium (Promocell, catalog C22010). As per vendor's description, cells were isolated from the cortex region of the brain from a pediatric donor. The cells were isolated without using antibody labeling to preserve the cells' natural properties for enhanced biological relevance. LL-CPK1 (CL101.1TM) porcine renal epithelial cells from proximal tubule were obtained from ATCC. All cell culture wells were seeded equally, and wells were randomized to control versus experimental conditions with duplicates or triplicates per condition. All experiments were performed between passages 4 and 6. Cells that had reached approximately 90% confluence were used in the shear stress experiment. For ROS quantification experiments, cells were treated with PMA (Sigma, catalog P8139-5MG) at a concentration of 50 ng/mL for 1 hour. To inhibit ROS production in respective experimental groups, cells were treated with 20 μM NOX inhibitor VAS 2870 (Sigma, catalog SML0273-5MG) 1 hour prior to PMA treatment.
Single-cell suspensions were washed 3 times with FACS buffer (1×PBS with 5% FBS and 0.1% NaN3) at 300 g for 5 minutes and were subsequently incubated with Live/Dead fixable yellow dead cell stain as per manufacturer's protocol, to exclude any dead cells, wherever applicable. Then, cells were fixed and permeabilized using Cytofix/Cytoperm buffer (BD, catalog 554722) or transcription factor buffer set (BD, catalog 562574) and stained for the following proteins: ARL13b, IFT88, Inversin, Dynein, γ-tubulin, Alk1, KLF4, HO-1, NRF2, and bACTIN. Suitable secondary reagents were used to detect the respective proteins. Primary antibodies were diluted 1:50, and secondary antibodies were diluted 1:500. BD perm wash buffer (catalog 554723) was used for antibody dilutions and washing. Primary antibodies were incubated for 45 minutes and secondaries for 30 minutes at 4° C. Suitable secondary antibody controls were included. To quantify total ROS, assay kit was used as per the manufacturer's instruction (Thermo Fisher Scientific, catalog 88-5930-74). After the completion of staining, cells were resuspended in FACS buffer. Stained cells were run on a flow cytometer (BD LSRFortessa). Sample acquisition was done using FACSDiva software (BD) with subsequent analysis on FlowJo software. To determine the presence of the ciliary protein ARL13b on human RBCs, unlabeled RBCs prior to infusion into the variable height flow chamber, and effluent containing RBCs collected postflow and RBCs postinteraction with brain ECs, were labeled with FITC-conjugated Arl13b antibody for 30 minutes on ice. RBCs were then washed and tested by flow cytometric analysis as previously described (49). To determine whether ROS generation in brain ECs can be increased by sickle RBCs and contributes to deciliation, slides coated with brain ECs were sham-treated or pretreated with the NOX inhibitor apocynin at 10 μM for 1 hour at 37° C., washed, and fitted into the flow chamber. Treated brain ECs were then exposed to unlabeled sickle RBCs for 10 minutes. Sickle RBCs were lysed with RBC lysis buffer and brain ECs scraped from the glass slide for testing for ROS levels using CM-H2-DCFDA (Invitrogen) as described previously in detail (50). One hundred thousand events per sample were acquired and tested by flow cytometric analysis. In separate experiments, and as described above, unlabeled sickle RBCs were tested by flow cytometry for ARL13b ciliary protein binding prior to infusion into the chamber (baseline levels) and postflow and once sickle RBCs interacted with brain ECs treated with 10 μM apocynin.

[1] = tested on: Human brain microvascular ECs; test: ROS generation in brain ECs exposed to sickle RBCs (CM-H2-DCFDA, flow cytometry); assay type: cell-based; conditions: brain ECs pretreated with apocynin 10 μM for 1 hour, then exposed to SS RBCs for 10 minutes; P<0.0001
Protocol: Single-cell suspensions were washed 3 times with FACS buffer (1×PBS with 5% FBS and 0.1% NaN3) at 300 g for 5 minutes and were subsequently incubated with Live/Dead fixable yellow dead cell stain as per manufacturer's protocol, to exclude any dead cells, wherever applicable. Then, cells were fixed and permeabilized using Cytofix/Cytoperm buffer (BD, catalog 554722) or transcription factor buffer set (BD, catalog 562574) and stained for the following proteins: ARL13b, IFT88, Inversin, Dynein, γ-tubulin, Alk1, KLF4, HO-1, NRF2, and bACTIN. Suitable secondary reagents were used to detect the respective proteins. Primary antibodies were diluted 1:50, and secondary antibodies were diluted 1:500. BD perm wash buffer (catalog 554723) was used for antibody dilutions and washing. Primary antibodies were incubated for 45 minutes and secondaries for 30 minutes at 4° C. Suitable secondary antibody controls were included. To quantify total ROS, assay kit was used as per the manufacturer's instruction (Thermo Fisher Scientific, catalog 88-5930-74). After the completion of staining, cells were resuspended in FACS buffer. Stained cells were run on a flow cytometer (BD LSRFortessa). Sample acquisition was done using FACSDiva software (BD) with subsequent analysis on FlowJo software. […]

ARL13b on SS RBCs = test: ARL13b bound to SS RBCs before and after flow chamber interaction with apocynin-pretreated brain ECs (flow cytometry); assay type: cell-based, human; conditions: ECs treated with 10 μM apocynin
Protocol: HBMVECs were cultured until they reached confluence on clear glass slides precoated with 2% gelatin. Slides coated with brain ECs were washed, then fit into a variable height flow chamber and tested for their ability to support adhesion of RBCs. The flow chamber was mounted on the stage of an inverted phase contrast microscope (Diaphot, Nikon Inc.) connected to a thermoplate (Tokai Hit Co., Ltd.) set at 37° C. Fluorescence-labeled RBCs suspended at 0.2% (v/v) in PBS with Ca^2+ and Mg^2+ were infused into the flow chamber and allowed to adhere to brain ECs for 10 minutes without flow. Before exposure to flow, a minimum of 3 fields at each of 7 different locations along a line oriented to future flow were examined, and the total number of fluorescent cells was counted. Fluid flow (PBS with Ca^2+ and Mg^2+) with a calibrated syringe pump was then started for a period of 15 minutes. Effluent was collected and tested by flow cytometry for cilia shedding from brain ECs by RBC contact. After exposure to flow, the fields were examined, and the number of fluorescent adherent RBCs to brain ECs was counted. The fraction of adherent cells was presented as number of cells attached per field after exposure to flow/total number of cells present per field before flow. […] To quantify total ROS, assay kit was used as per the manufacturer's instruction (Thermo Fisher Scientific, catalog 88-5930-74). […]

[2] = PMA 50 ng/mL for 1 hour vs untreated
[3] = 20 μM VAS2870 1 hour prior to PMA 50 ng/mL

Compound: CCCCCCCCCCCCCC(=O)O[C@@H]1[C@@H](C)[C@@]2(O)[C@@H](C=C(CO)C[C@]3(O)C(=O)C(C)=C[C@@H]23)[C@@H]2C(C)(C)[C@]12OC(C)=O [PMA]
- HO-1 levels (HBMVECs; [2]): lower
- cilia-associated proteins NRF2, IFT88 and γ-tubulin levels (HBMVECs; [2]): downregulated; also recorded: reduced; also recorded: decreased
- total ROS (HBMVECs; [2]): induced ROS; also recorded: enhanced total ROS

Compound: c1ccc(Cn2nnc3c(Sc4nc5ccccc5o4)ncnc32)cc1 [VAS2870]
- HO-1 levels (HBMVECs; [3]): restored to control levels
- cilia-associated proteins NRF2, IFT88 and γ-tubulin levels (HBMVECs; [3]): rescued; also recorded: restored to baseline; also recorded: returned to baseline
- total ROS (HBMVECs; 20 μM VAS2870 1 hour prior to PMA 50 ng/mL, vs PMA alone): partially attenuated; also recorded: quenched ROS production

Compound: COc1cc(C(C)=O)ccc1O [apocynin]
- ROS generation in ECs [1]: reduced ROS generation in ECs to baseline levels
- cilia protein expression on sickle RBCs exposed to apocynin-treated brain ECs (in words) (ARL13b on SS RBCs): decreased cilia protein expression
- ARL13b expression on SS RBCs after exposure to apocynin-treated brain ECs (ARL13b on SS RBCs; before exposure SS RBCs showed approximately 35% ARL13b, P<0.05, n=6): approximately 20%
